Experiments:
[1] = tested on: P. falciparum male gametocytes; assay: P. falciparum Dual Gamete Formation Assay (PfDGFA), male readout (exflagellation); type: cell-based, Plasmodium falciparum NF54; conditions: for Average inhibition male (%): average of replicates; for % inhibition male (individual replicates) R1: replicate R1; for % inhibition male (individual replicates) R4: replicate R4; for Activity: hit = >50% inhibition in male or female readout in at least 3 replicates, 0 = no class assigned; for % inhibition male (individual replicates) R3: replicate R3
Method in brief: (§1)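 Mature NF54 gametocytes (day 14) were incubated with compound for 24 h at 37°C under 1% O2/3% CO2, then triggered with xanthurenic acid ookinete medium plus Cy3-anti-Pfs25. Exflagellation was imaged by brightfield; after a further 24 h at 28°C, Pfs25-positive female gametes were imaged by fluorescence and counted by automated image analysis.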

[2] = tested on: P. falciparum female gametocytes; assay: P. falciparum Dual Gamete Formation Assay (PfDGFA), female readout (Pfs25-positive female gametes); type: cell-based, Plasmodium falciparum NF54; conditions: for Average inhibition female (%): average of replicates; for % inhibition female (individual replicates) R1: replicate R1; for % inhibition female (individual replicates) R3: replicate R3; for % inhibition female (individual replicates) R4: replicate R4
Method in brief: as §1

[3] = 2µM, 24h preincubation with gametocytes prior to induction of gametogenesis
[4] = 2µM, 24h preincubation, hits selected on >50% inhibition in the male readout across replicates
[5] = PfDGFA at 2µM, 24h preincubation
[6] = 2µM, 24h preincubation, hits selected on >50% inhibition in the female readout across replicates
[7] = 2µM, 24h preincubation, number of replicates with >50% inhibition in the male readout
[8] = 2µM, 24h preincubation, number of replicates with >50% inhibition in the female readout
[9] = PfDGFA at 2µM, 24h preincubation with gametocytes prior to induction of gametogenesis
[10] = PfDGFA at 2µM, 24h preincubation with gametocytes
[11] = 2µM, 24h preincubation with gametocytes

SMILES | Average inhibition male (%) [1, 3] [%] | % inhibition male (individual replicates) R1 [1, 3] [%] | % inhibition male (individual replicates) R4 [1, 3] [%] | Average inhibition female (%) [2, 3] [%] | % inhibition female (individual replicates) R1 [2, 3] [%] | % inhibition female (individual replicates) R3 [2, 3] [%] | % inhibition female (individual replicates) R4 [2, 3] [%] | % inhibition male (individual replicates) R3 [1, 3] [%] | HitlevelM [1, 7] | HitlevelF [2, 8] | other results
CCS(=O)(=O)c1ccc(OC)c(Nc2nccc(-c3c(-c4cccc(NC(=O)c5c(F)cccc5F)c4)nn4ncccc34)n2)c1 [TCMDC-135682] | 69.4 | 83.8 | 34.3 | 14.6 | 17.1 | 13.9 | 13.6 | – | – | – | HitlevelM [1, 4]: 2; Activity [1, 5]: 0; HitlevelF [2, 6]: 0
C[C@@H](Oc1cc(-n2cnc3ccc(OCC4CCN(S(C)(=O)=O)CC4)cc32)sc1C(N)=O)c1ccccc1C(F)(F)F [TCMDC-135685] | 39.3 | 77.8 | -12.5 | 30.5 | 13.3 | 19.8 | 50.4 | 32.6 | 2 | 1 | –
COc1ccc2ncc(F)c(CCN3CCC(NCc4cc(F)c5c(c4)OCCO5)CC3)c2n1.Cl [TCMDC-135849] | – | – | – | – | – | – | – | – | – | – | % inhibition male (individual replicates) R1 [1, 9]: -15.0%; % inhibition male (individual replicates) R3 [1, 9]: -30.0%; % inhibition male (individual replicates) R4 [1, 9]: -21.8%; Average inhibition male (%) [1, 5]: -22.8%; % inhibition female (individual replicates) R1 [2, 9]: 9.2%; % inhibition female (individual replicates) R3 [2, 9]: -25.5%; % inhibition female (individual replicates) R4 [2, 9]: 10.6%; Average inhibition female (%) [2, 5]: -0.168%
COc1ccc(-c2cnc3[nH]cc(-c4ccncc4)c3c2)cc1OC [TCMDC-135853] | – | – | – | – | – | – | – | – | – | – | Average inhibition male (%) [1, 10]: 73.2%; % inhibition male (individual replicates) R1 [1, 10]: 70.5%; % inhibition male (individual replicates) R3 [1, 10]: 62.1%; % inhibition male (individual replicates) R4 [1, 10]: 76.3%; HitlevelM ([1]; number of replicates with >50% inhibition in the male readout, 2µM): 4; Average inhibition female (%) [2, 10]: 15.5%; % inhibition female (individual replicates) R1 [2, 10]: 9.0%; % inhibition female (individual replicates) R3 [2, 10]: 36.4%; % inhibition female (individual replicates) R4 [2, 10]: 5.3%; HitlevelF ([2]; number of replicates with >50% inhibition in the female readout, 2µM): 0
CC(C)CN1CCC(COc2ccc3ncn(-c4cc(O[C@H](C)c5ccccc5C(F)(F)F)c(C(N)=O)s4)c3c2)CC1 [TCMDC-135856] | – | – | – | – | – | – | – | – | – | – | % inhibition male (individual replicates) R1 [1, 9]: 69.3%; % inhibition male (individual replicates) R4 [1, 9]: -19.8%; Average inhibition male (%) [1, 5]: 39.0%; % inhibition female (individual replicates) R1 [2, 9]: -5.1%; % inhibition female (individual replicates) R3 [2, 9]: 3.7%; % inhibition female (individual replicates) R4 [2, 9]: -5.5%; Average inhibition female (%) [2, 5]: -0.7%
COc1ccc2ccccc2c1CCCCN1CCN(CC(c2ccc(F)cc2)N2CCC(N3CCCC3)CC2)CC1.O=C(O)C(F)(F)F (centres unmarked) [TCMDC-135866] | 26.2 | 24.9 | 58.9 | 23.8 | 27.0 | 20.6 | 10.9 | 0.4 | 1 | 0 | –
COc1ccc2ccccc2c1CCCCN1CCN(CC(c2ccc(F)cc2)N2CCC2)CC1.O=C(O)C(F)(F)F (centres unmarked) [TCMDC-135867] | 8.0 | -5.9 | 17.6 | 37.8 | 32.4 | 22.8 | 37.2 | -10.3 | 0 | 1 | –
Cc1c(OC(C)C)nc2ccccc2c1C(=O)N[C@H](c1cccc(F)c1)C1CC1 [TCMDC-135994] | – | – | – | – | – | – | – | – | – | – | % inhibition male (individual replicates) R1 [1, 9]: 5.7%; % inhibition male (individual replicates) R3 [1, 9]: 14.1%; % inhibition male (individual replicates) R4 [1, 9]: 25.6%; Average inhibition male (%) [1, 5]: 14.7%; % inhibition female (individual replicates) R1 [2, 9]: 11.9%; % inhibition female (individual replicates) R3 [2, 9]: -14.7%; % inhibition female (individual replicates) R4 [2, 9]: 16.8%; Average inhibition female (%) [2, 5]: 1.3%
CCn1c(-c2nonc2N)nc2c(-c3ccccc3)ncc(OCCCCNCCc3ncc[nH]3)c21.O=C(O)C(F)(F)F [TCMDC-136000] | – | – | – | – | – | – | – | – | – | – | Average inhibition male (%) [1, 11]: 92.8%; % inhibition male (individual replicates) R1 [1, 11]: 92.7%; % inhibition male (individual replicates) R3 [1, 11]: 86.1%; % inhibition male (individual replicates) R4 [1, 11]: 98.9%; Average inhibition female (%) [2, 11]: 36.6%; % inhibition female (individual replicates) R1 [2, 11]: 29.5%; % inhibition female (individual replicates) R3 [2, 11]: 30.1%; % inhibition female (individual replicates) R4 [2, 11]: 56.9%
COc1ccc2ncc(F)c(CCN3C[C@H](CNCc4nc5c(cc4Cl)OCC(=O)N5)[C@H](O)C3)c2n1.Cl [TCMDC-136031] | 6.8 | 19.6 | 9.5 | 9.3 | 13.9 | -6.7 | 27.7 | -8.5 | – | – | HitlevelM [1, 4]: 0; Activity [1, 5]: 0; HitlevelF [2, 6]: 0
COc1ccc2nccc([C@H](O)CN3CCC(NCc4ccc5c(c4C)OCCO5)CC3)c2n1.Cl [TCMDC-136066] | -9.6 | -4.0 | 0.2 | 6.6 | 21.2 | -26.0 | 9.8 | -34.1 | – | – | HitlevelM [1, 4]: 0; Activity [1, 5]: 0; HitlevelF [2, 6]: 0
Cn1cc(CN2CCC(OC(c3ccccc3)c3ccc(Cl)cc3)CC2)cn1 (centres unmarked) [TCMDC-136165] | 26.9 | 21.0 | 55.6 | 27.9 | 28.0 | 20.7 | 33.3 | 11.7 | 1 | 0 | –
CCn1c(-c2nonc2N)nc2c(-c3cccc(NC(=O)Nc4ccccc4OC)c3)ncc(OCCCN)c21.O=C(O)C(F)(F)F [TCMDC-136190] | 38.6 | 46.0 | 54.2 | 31.3 | 29.0 | 9.1 | 20.1 | 15.9 | 1 | 1 | –
Cc1[nH]cc(Br)c(=O)c1-c1ccc(Oc2ccc(OC(F)(F)F)cc2)cc1 [TCMDC-136197] | -14.5 | -14.1 | -5.8 | 8.0 | 22.6 | 0.02 | -5.7 | -25.2 | – | – | HitlevelM [1, 4]: 0; Activity [1, 5]: 0; HitlevelF [2, 6]: 0
Cl.c1ccc2c(C3CCN(CCCCOc4ccc5c(c4)CCN(CC4CC4)CC5)CC3)c[nH]c2c1 [TCMDC-136244] | 8.5 | 7.6 | 14.2 | 24.9 | 21.4 | 5.1 | 24.5 | -1.4 | 0 | 0 | –
Cc1ccc(-n2c(C)nc3c(Nc4ccc(-c5ccncc5)cc4)ncnc32)c(C)c1 [TCMDC-136289] | 51.6 | 92.5 | -28.8 | 6.8 | 7.7 | 15.7 | 3.5 | – | – | – | HitlevelM [1, 4]: 2; Activity [1, 5]: 0; HitlevelF [2, 6]: 0
CN(C)CCCNCc1cn(S(=O)(=O)c2ccccc2Cl)c2ccccc12.Cl [TCMDC-136302] | 39.6 | 57.4 | 62.3 | 50.5 | 52.5 | 48.5 | 54.4 | 42.5 | 2 | 2 | –
